Data taken from PubChem BioAssay AID248 (DTP/NCI, 2004).
“And” between values parts separate entries of the source, which are not always exact repeats. Identical values can stand only once. Toxic doses and inconclusive results are not listed. Rule as the data show it: active = T/C of 150% or more; inactive = T/C below 125%.

System: L1210 leukemia ip in BDF1 mice, survival T/C
Assay: NCI In Vivo Anticancer Drug Screen. Data for tumor model L1210 Leukemia (intraperitoneal) in B6D2F1 (BDF1) mice
Conditions: endpoint: mean survival time, higher = longer survival
Outline: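 In this screen, tumor-bearing mice given compound are compared to those given vehicle, and their survival values are reported as a treated-to-control quotient.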

[1] = dose: 100.0 mg/kg/injection, schedule: Q04DX002 (ip), vehicle: Klucel (hydroxypropylcellulose) (HPC)
[2] = dose: 200.0 mg/kg/injection, schedule: Q04DX002 (ip), vehicle: Klucel (hydroxypropylcellulose) (HPC)
[3] = dose: 400.0 mg/kg/injection, schedule: Q04DX002 (ip), vehicle: Klucel (hydroxypropylcellulose) (HPC)
[4] = dose: 100.0 mg/kg/injection, schedule: Q04DX003 (ip), vehicle: Klucel (hydroxypropylcellulose) (HPC)
[5] = dose: 200.0 mg/kg/injection, schedule: Q04DX003 (ip), vehicle: Klucel (hydroxypropylcellulose) (HPC)
[6] = dose: 50.0 mg/kg/injection, schedule: Q04DX002 (ip), vehicle: Klucel (hydroxypropylcellulose) (HPC)
[7] = dose: 100.0 mg/kg/injection, schedule: Q04DX002 (ip), vehicle: carboxymethylcellulose (CMC)
[8] = dose: 100.0 mg/kg/injection, schedule: Q04DX003 (ip), vehicle: carboxymethylcellulose (CMC)
[9] = dose: 200.0 mg/kg/injection, schedule: Q04DX002 (ip), vehicle: carboxymethylcellulose (CMC)
[10] = dose: 200.0 mg/kg/injection, schedule: Q04DX003 (ip), vehicle: carboxymethylcellulose (CMC)
[11] = dose: 400.0 mg/kg/injection, schedule: Q04DX002 (ip), vehicle: carboxymethylcellulose (CMC)
[12] = dose: 400.0 mg/kg/injection, schedule: Q04DX003 (ip), vehicle: carboxymethylcellulose (CMC)
[13] = dose: 100.0 mg/kg/injection, schedule: Q04DX002 (ip), vehicle: gum acacia
[14] = dose: 200.0 mg/kg/injection, schedule: Q04DX002 (ip), vehicle: gum acacia
[15] = dose: 400.0 mg/kg/injection, schedule: Q04DX002 (ip), vehicle: gum acacia
[16] = dose: 100.0 mg/kg/injection, schedule: Q01DX001 (ip), vehicle: carboxymethylcellulose (CMC)
[17] = dose: 200.0 mg/kg/injection, schedule: Q01DX001 (ip), vehicle: carboxymethylcellulose (CMC)
[18] = dose: 100.0 mg/kg/injection, schedule: Q01DX009 (ip), vehicle: Klucel (hydroxypropylcellulose) (HPC)
[19] = dose: 200.0 mg/kg/injection, schedule: Q01DX009 (ip), vehicle: Klucel (hydroxypropylcellulose) (HPC)
[20] = dose: 400.0 mg/kg/injection, schedule: Q01DX009 (ip), vehicle: Klucel (hydroxypropylcellulose) (HPC)
[21] = dose: 400.0 mg/kg/injection, schedule: Q04DX003 (ip), vehicle: Klucel (hydroxypropylcellulose) (HPC)
[22] = dose: 100.0 mg/kg/injection, schedule: Q04DX003 (ip), vehicle: saline with Tween-80
[23] = dose: 200.0 mg/kg/injection, schedule: Q04DX003 (ip), vehicle: saline with Tween-80

Measured: T/C

NC1CC[N-]CC1.NC1CC[N-]CC1.NC1CC[N-]CC1.NC1CC[N-]CC1.[Cl][Rh][Cl]
inactive: dose: 6.25 mg/kg/injection, schedule: Q01DX009 (ip), vehicle: saline with Tween-80 100 % of control | dose: 12.5 mg/kg/injection, schedule: Q01DX009 (ip), vehicle: saline with Tween-80 96 % of control | dose: 25.0 mg/kg/injection, schedule: Q01DX009 (ip), vehicle: saline with Tween-80 104 % of control

CCC(=O)C(c1ccccc1)(c1ccccc1)C(C)CN(C)C (stereo not drawn)
inactive: dose: 5.0 mg/kg/injection, schedule: Q01DX001 (ip), vehicle: saline 102 % of control | dose: 10.0 mg/kg/injection, schedule: Q01DX001 (ip), vehicle: saline 104 % of control | dose: 20.0 mg/kg/injection, schedule: Q01DX001 (ip), vehicle: saline 96 % of control | dose: 40.0 mg/kg/injection, schedule: Q01DX001 (ip), vehicle: saline 87 % of control

CCc1ncc(N2C3CCCC2CC(=O)C3)[nH]1
inactive: dose: 75.0 mg/kg/injection, schedule: Q01DX001 (ip), vehicle: saline 98 % of control | dose: 150.0 mg/kg/injection, schedule: Q01DX001 (ip), vehicle: saline 98 % of control

CCCCCCCC(=O)N1CC(C)OC(C)C1 (stereo not drawn)
inactive: [1] 100 % of control | [2] 114 % of control | [3] 107 % of control

Cc1ccc(C(=O)/C=C(\C(=O)c2ccccc2)c2ccccc2)cc1C
inactive: [1] 97 % of control | [2] 93 % of control | [3] 97 % of control

CS(=O)(=O)N(CC(=O)O)Cc1ccc(F)cc1
inactive: dose: 100.0 mg/kg/injection, schedule: Q01DX009 (ip), vehicle: other 103 % of control | dose: 100.0 mg/kg/injection, schedule: Q04DX003 (ip), vehicle: other 98 % of control | dose: 200.0 mg/kg/injection, schedule: Q01DX009 (ip), vehicle: other 102 % of control | dose: 200.0 mg/kg/injection, schedule: Q04DX003 (ip), vehicle: other 104 % of control | dose: 400.0 mg/kg/injection, schedule: Q01DX009 (ip), vehicle: other 97 % of control | dose: 400.0 mg/kg/injection, schedule: Q04DX003 (ip), vehicle: other 94 % of control

O=P(Cc1ccccc1)(C(O)c1ccccc1)C(O)c1ccccc1 (stereo not drawn)
inactive: [4] 87 % of control | [5] 91 % of control

CC(=O)Nc1ccc(S(=O)(=O)Nc2cc(C)c(C)cc2C)cc1
inactive: [1] 103 % of control | [2] 91 % of control

Cc1ccc(S(=O)(=O)N/N=C2/CC3CCCCCCC23)cc1 (stereo not drawn)
inactive: [6] 104 % of control | [1] 97 % of control | [2] 111 % of control

O=C(O)c1nc(SCc2ccccc2)n(Cc2ccccc2)c1C(=O)O
inactive: [7] 97 % of control and 89 % of control | [8] 94 % of control and 97 % of control | [9] 94 % of control and 115 % of control | [10] 97 % of control and 98 % of control | [11] 97 % of control and 87 % of control | [12] 96 % of control

FC(F)(F)c1cccc(NC(=S)NC(Cc2ccccc2)c2ccccc2)c1 (stereo not drawn)
inactive: [13] 104 % of control | [14] 98 % of control | [15] 92 % of control

CCS(=O)(=O)c1ccc(NC(=O)OC(C)(C)C)cc1
inactive: [16] 94 % of control | [17] 94 % of control | dose: 400.0 mg/kg/injection, schedule: Q01DX001 (ip), vehicle: carboxymethylcellulose (CMC) 100 % of control

O=C(Nc1ccc(F)cc1)Nc1ccc(CCO)cc1
inactive: [16] 99 % of control | dose: 100.0 mg/kg/injection, schedule: Q01DX009 (ip), vehicle: carboxymethylcellulose (CMC) 101 % of control and 104 % of control | [7] 92 % of control and 87 % of control and 91 % of control | [8] 95 % of control | [17] 92 % of control | dose: 200.0 mg/kg/injection, schedule: Q01DX009 (ip), vehicle: carboxymethylcellulose (CMC) 92 % of control and 98 % of control | [9] 87 % of control and 88 % of control and 90 % of control | [10] 101 % of control | dose: 400.0 mg/kg/injection, schedule: Q01DX009 (ip), vehicle: carboxymethylcellulose (CMC) 92 % of control | [11] 93 % of control and 87 % of control and 88 % of control | [12] 91 % of control

CC1(C)C=C(C(Br)c2cccc(Cl)c2)C(=O)c2ccccc21 (stereo not drawn)
inactive: [18] 101 % of control | [4] 109 % of control | [19] 104 % of control | [5] 106 % of control | [20] 106 % of control | [21] 104 % of control

COc1ccc(-c2cc(C(=O)O)c3cc4ccccc4cc3n2)cc1Br
inactive: [18] 107 % of control | [19] 93 % of control | [20] 105 % of control

O=C1C=C(Nc2ccc(N(CCCl)CCCl)cc2)c2ccccc2C1=O
inactive: [4] 107 % of control | [5] 114 % of control | [21] 95 % of control

C1CCC2[N-]CC3CCCCC3[N-]CC3CCCCC3[N-]CC3CCCCC3[N-]CC2C1.[Cl][Fe]([Cl])([Cl])[Cl].[Fe+6] (stereo not drawn)
inactive: dose: 12.5 mg/kg/injection, schedule: Q04DX002 (ip), vehicle: Klucel (hydroxypropylcellulose) (HPC) 102 % of control | dose: 25.0 mg/kg/injection, schedule: Q04DX002 (ip), vehicle: Klucel (hydroxypropylcellulose) (HPC) 102 % of control | [6] 94 % of control

O=C(Nc1ccccc1)Nc1ccc([N+](=O)[O-])cc1[N+](=O)[O-]
inactive: dose: 100.0 mg/kg/injection, schedule: Q01DX001 (ip), vehicle: saline with Tween-80 93 % of control | [22] 92 % of control | dose: 200.0 mg/kg/injection, schedule: Q01DX001 (ip), vehicle: saline with Tween-80 92 % of control | [23] 93 % of control | dose: 400.0 mg/kg/injection, schedule: Q01DX001 (ip), vehicle: saline with Tween-80 98 % of control

O=C(CC(=O)c1ccccc1)Nc1ccccc1
inactive: dose: 100.0 mg/kg/injection, schedule: Q01DX001 (ip), vehicle: gum acacia 103 % of control and 104 % of control | dose: 100.0 mg/kg/injection, schedule: Q01DX009 (ip), vehicle: gum acacia 95 % of control and 104 % of control | [13] 100 % of control and 88 % of control | dose: 100.0 mg/kg/injection, schedule: Q04DX003 (ip), vehicle: gum acacia 96 % of control and 91 % of control | dose: 200.0 mg/kg/injection, schedule: Q01DX001 (ip), vehicle: gum acacia 96 % of control and 97 % of control | dose: 200.0 mg/kg/injection, schedule: Q01DX009 (ip), vehicle: gum acacia 92 % of control | [14] 98 % of control and 90 % of control | dose: 200.0 mg/kg/injection, schedule: Q04DX003 (ip), vehicle: gum acacia 96 % of control and 88 % of control | dose: 400.0 mg/kg/injection, schedule: Q01DX001 (ip), vehicle: gum acacia 92 % of control and 93 % of control | dose: 400.0 mg/kg/injection, schedule: Q01DX009 (ip), vehicle: gum acacia 102 % of control | [15] 94 % of control and 91 % of control | dose: 400.0 mg/kg/injection, schedule: Q04DX003 (ip), vehicle: gum acacia 93 % of control and 94 % of control

O=C(O)COc1ccccc1F
inactive: [1] 113 % of control | [2] 98 % of control | [3] 98 % of control

Cc1cc(OCc2nc(N)nc(N)c2-c2ccc(Cl)c(Cl)c2)ccc1NC(=O)c1ccc(S(=O)(=O)F)cc1
inactive: dose: 75.0 mg/kg/injection, schedule: Q01DX001 (ip), vehicle: saline with Tween-80 100 % of control

CCOC(=O)/C(=N\O)C(C)(C)c1ccnc2ccccc12
inactive: [22] 86 % of control | [23] 88 % of control | dose: 400.0 mg/kg/injection, schedule: Q04DX003 (ip), vehicle: saline with Tween-80 95 % of control

COc1ccc(/C=N\NC(=O)CNC(=O)Nc2cccc([N+](=O)[O-])c2)cc1O
inactive: dose: 50.0 mg/kg/injection, schedule: Q01DX009 (ip), vehicle: saline with Tween-80 93 % of control | dose: 100.0 mg/kg/injection, schedule: Q01DX009 (ip), vehicle: saline with Tween-80 100 % of control | dose: 200.0 mg/kg/injection, schedule: Q01DX009 (ip), vehicle: saline with Tween-80 96 % of control
